Here are results for two compounds from patent publication US20130029983A1, “AMINOTHIENOPYRIDAZINE INHIBITORS OF TAU ASSEMBLY” (priority 2009, published 2013).

Data set [1] has as its target T1, K18PL tau (Homo sapiens, UniProt P10636, P618L).
T1 construct: (K18PL; amino acids 244-369); made in house
The experiment in a line: Heparin-induced K18PL tau fibrillization assay monitored by ThT fluorescence. Type of data set: biochemical. The note with it: for Emax: read-out: K18PL (ThT) maximal percent inhibition achieved in the assay. In short, it runs like this: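 K18PL (30 μM stock, with 0.24 μM Alexa Red-labeled K18PL) plus 40 μM heparin and compound, fibrillized 6 h at 37 °C. Fibrils read by ThT (12.5 μM final, in 100 mM glycine pH 8.5, 1 h RT), ex 450/em 510 nm. Percent inhibition scaled between DMSO wells and non-fibrillizing K18 KD control wells.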

A short description of data set [2]: Turbidimetric solubility in fibrillization buffer. Type of data set: physicochemical. To be noted: 100 mM NaOAc pH 7.0 fibrillization buffer, 1% DMSO. How it is done:
Compounds were serially diluted in DMSO to achieve a 2.5 fold dilution series from 20 mM down 8 points to […] on a 384-well master plate (Costar 3672). Aliquots (2 μL) were transferred to a clear 96-well assay plate (Fisher 12-565-501) containing 198 μL fibrillization buffer (100 mM NaOAc pH 7.0) for a 100-fold dilution (200 μM down to 0.3 μM). The plate was incubated with agitation for 2.5 h, and the absorbance at 550, 600, 650 and 700 nm was measured on a Spectramax M5 spectrophotometer. DMSO (1%) in fibrillization buffer served as a control that was subtracted from each data point. The absorbances were averaged and the concentration at which the average absorbance rose above 0.03 AU was an indication of insoluble compound, with solubility limits reported as the previous concentration in the dilution series.

Data set [3] can be described thus: Brain and plasma drug levels 1 h after i.p. administration (LC-MS/MS). Type of data set: in vivo. The note with it: mice, 1 h after i.p. 5 mg/Kg. On the procedure:
Test compounds underwent preliminary evaluations of brain penetration, in which 5 mg/Kg of each compound was administered intraperitoneally (i.p.) to a group of three normal mice; drug levels in brain and plasma were determined at a single time-point (1 h) by LC-MS/MS using pre-validated calibration curves. […] However, both esters appeared to have relatively short half-lives in plasma, as indicated by the limited amount of parent drug detected after 1 h from administration of the compounds. […] CNDR-51362 was selected for full PK analysis in which brain and plasma drug levels were determined at six time points (i.e., 30 min, 1 h, 2 h, 4 h, 8 h, and 16 h). The results from this experiment, illustrated in FIG. 6A, confirmed that the total B/P exposure ratio over 16 h is 1.6. […] Finally, in order to investigate the potential for ATPZ congeners to be orally administered, we evaluated brain and plasma level of CNDR-51362 and CNDR-51349 after oral administration of 5 mg/Kg.
Brain tissue was homogenized in 10 mM ammonium acetate, pH 5.7 (1:2; w/v) using a handheld sonic homogenizer. Plasma was obtained from blood that was collected into a 1.5 mL tube containing 0.5M EDTA solution and subjected to centrifugation for 10 min. at 4500 g at 4° C. Aliquots (50 μL) of brain homogenate or plasma were mixed with 0.2 mL of acetonitrile, centrifuged at 15,000 g, and the resulting supernatants were used for subsequent LC-MS/MS analysis. The LC-MS/MS system was comprised of an Aquity HPLC and a TQ MS that was controlled using MassLynx software (Waters Corporation, Milford, Mass., USA). Compounds were detected using multiple reaction monitoring (MRM) of their specific collision-induced ion transitions. Samples (5 μL) were separated on an Aquity BEH C18 column (1.7 μm, 2.1×50 mm) at 35° C. Operation was in positive electrospray ionization mode, with mobile phase A of 0.1% (v/v) formic acid, and B of either acetonitrile or methanol with 0.1% (v/v) formic acid at a flow rate of 0.6 mL/min using a gradient from 5% to 95% B over two min., followed by wash and re-equilibration steps. The MS was operated with a desolvation temperature of 450° C. and a source temperature of 150° C. Desolvation and source nitrogen gas flows were 900 L/hr and 50 L/hr, respectively. Source and MS/MS voltages were optimized for each compound using the MassLynx auto tune utility. Standard curves were generated for each compound from brain homogenate and plasma samples that had compound added at 4, 40, 400 and 4000 ng/mL and extracted as above. Peak areas were plotted against concentration and a 1/x weighted linear regression curve was used to quantify the tissue-derived samples using the average peak area from triplicate injections.

Setting [4] is: Table 5, read-out: K18PL (ThT) IC50 value.

Where two headings read alike, the source gives them in different places.

T1 sequence (P10636 561-686 P618L): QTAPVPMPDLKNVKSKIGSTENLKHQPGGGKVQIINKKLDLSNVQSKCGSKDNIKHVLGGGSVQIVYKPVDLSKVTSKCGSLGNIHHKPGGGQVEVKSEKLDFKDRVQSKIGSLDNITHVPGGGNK

In general, IC50 refers to the midpoint of a concentration-inhibition curve. With `Nc1scc2c(C(=O)NC3CC3)nn(-c3ccc(Cl)cc3)c(=O)c12` [CNDR-51362, 5-Amino-3-(4-chlorophenyl)-N-cyclopropyl-4-oxo-3,4-dihydrothieno[3,4-d]pyridazine-1-carboxamide], the IC50 in data set [1] (setting [4]) was determined as 4.6 µM. In addition, the Emax in data set [1] (Table 5) was found to be 87%. In data set [2], the “Water Solubility” value amounted to 32 µM. In addition, the “B/P, ratio between brain/plasma drug level” value in data set [3] was found to be 1.6.
Consider `CCOC(=O)c1nn(-c2ccc(Cl)cc2)c(=O)c2c(N)scc12` [Compound 17, Ethyl 5-amino-3-(4-chlorophenyl)-4-oxo-3,4-dihydrothieno[3,4-d]pyridazine-1-carboxylate], for which the inhibition at 80 µM in data set [1] (Table 3, highest tested concentration (80 μM), read-out: Tau ThT Assay % Inhib.) came out at 84%. The IC50 is 3.98 µM in data set [1] (Table 3, logarithm of IC50, K18PL tau ThT fluorescence inhibition, NC = not calculated due to insufficient activity, read-out: Tau ThT Assay Log IC50 (converted)) and 3.1 µM in data set [1] (setting [4]). In data set [1] (Table 5), the Emax worked out at 71%. Also, the “Water Solubility” value in data set [2] came to 13 µM. The “B/P, ratio between brain/plasma drug level” value in data set [3] (5 mg/kg) is 3.3; in data set [3] (listed as CNDR-51346, 5 mg/kg) it was “comparatively higher B/P ratio”.
